# Test results taken from US20240228482A1, “COMPOUNDS, COMPOSITIONS AND METHODS OF TREATING CANCER” (HOTSPOT THERAPEUTICS, INC., priority 2021, published 2024).
# Target: T1, CBL-B (Homo sapiens, UniProt Q13191)
# T1 construct: GST
# Test: CBL-B TR-FRET IC50 screening (E1/E2 ubiquitination, Biotin-Ubiquitin, Anti GST-Tb donor / Streptavidin-d2 acceptor)
# Assay type: biochemical
# Details: CBL-B 10 nM final; 11-point titration from 100 uM; binned A-F; read-out: CBL-B TR-FRET activity IC50
# T1 sequence (Q13191 whole entry): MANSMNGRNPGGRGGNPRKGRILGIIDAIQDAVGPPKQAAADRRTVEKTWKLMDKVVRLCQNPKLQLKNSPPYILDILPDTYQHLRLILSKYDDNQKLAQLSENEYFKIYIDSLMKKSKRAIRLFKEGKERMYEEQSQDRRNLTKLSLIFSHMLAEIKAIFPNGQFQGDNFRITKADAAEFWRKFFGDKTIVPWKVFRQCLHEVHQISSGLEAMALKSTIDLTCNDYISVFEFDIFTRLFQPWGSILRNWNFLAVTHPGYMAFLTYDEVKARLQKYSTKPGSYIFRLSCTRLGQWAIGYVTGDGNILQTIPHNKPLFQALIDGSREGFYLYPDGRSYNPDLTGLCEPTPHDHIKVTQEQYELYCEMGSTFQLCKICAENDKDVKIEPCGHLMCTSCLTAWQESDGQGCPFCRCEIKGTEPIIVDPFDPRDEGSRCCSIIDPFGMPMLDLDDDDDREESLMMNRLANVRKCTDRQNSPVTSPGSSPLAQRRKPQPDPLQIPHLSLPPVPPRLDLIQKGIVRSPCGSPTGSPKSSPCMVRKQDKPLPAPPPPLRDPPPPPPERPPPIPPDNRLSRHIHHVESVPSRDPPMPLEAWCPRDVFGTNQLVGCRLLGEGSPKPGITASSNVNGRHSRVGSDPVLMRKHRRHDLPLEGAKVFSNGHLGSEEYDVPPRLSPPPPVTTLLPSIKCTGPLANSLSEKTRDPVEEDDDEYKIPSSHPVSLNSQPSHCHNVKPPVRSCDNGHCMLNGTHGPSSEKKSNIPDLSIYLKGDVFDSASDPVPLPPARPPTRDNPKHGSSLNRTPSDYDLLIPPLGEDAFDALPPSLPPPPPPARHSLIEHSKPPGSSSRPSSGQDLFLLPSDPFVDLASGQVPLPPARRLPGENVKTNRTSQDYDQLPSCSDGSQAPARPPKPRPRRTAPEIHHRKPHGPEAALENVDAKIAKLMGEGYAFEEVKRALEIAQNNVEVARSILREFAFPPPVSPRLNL
row,Structure (SMILES),IC50 [nM]
1,COc1cc(-n2cc3c(C(F)(F)F)cc(CN4CC[C@H](F)C4)cn3c2=O)cc(C2(Cc3nncn3C)COC2)c1 [Compound 109],< 100
2,Cn1cnnc1CC1(c2cccc(-n3cc4c(C(F)(F)F)cc(C5CCN(CC(F)(F)F)CC5)cn4c3=O)c2)COC1 [Compound 178],301 to 1000
3,Cc1c[nH]nc1[C@@H](c1cccc(-n2cc3c(C(F)(F)F)cc(CN4CCC[C@H](C)C4)cn3c2=O)c1)C1COC1 [Compound 281],> 10000
4,C[C@H]1CN(Cc2cc(C(F)(F)F)c3cn(-c4cccc(C5(Cc6nncn6C)COC5)c4)c(=O)n3c2)CCC1(F)F [Compound 73],3000 to 10000
5,C[C@H](Sc1nncn1C)c1cccc(-n2cc3c(C(F)(F)F)cccn3c2=O)c1 [Compound 6],> 10000
6,Cn1cnnc1CC1(c2cccc(-n3cc4c(C(F)(F)F)cc(CN5CC6(COC6)C5)cn4c3=O)c2)COC1 [Compound 128],< 100
7,COc1cc(-n2cc3c(C(F)(F)F)cc(CN4CCC[C@H](C)C4)cn3c2=O)cc(C2(Cc3nncn3C)COC2)c1 [Compound 107],< 100
8,CO[C@H]1CCCN(Cc2cc(C(F)(F)F)c3cn(-c4cccc([C@H](c5nncn5C)C5CCC5)c4)c(=O)n3c2)C1 [Compound 250],< 100
9,Cn1cnnc1[C@@H](c1cccc(-n2cc3c(C(F)(F)F)cc(CN4CC(C(F)(F)F)C4)cn3c2=O)c1)C1CCC1 [Compound 313],< 100
10,Cn1cnnc1CC1(c2cccc(-n3cc4c(C(F)(F)F)cc(CN5CCC[C@H](O)C5)cn4c3=O)c2)COC1 [Compound 125],< 100
11,"CC(c1cc(C(F)(F)F)c2cn(-c3cccc([C@H](c4nncn4C)C4CCC4)c3)c(=O)n2c1)N1CCC[C@H](C)C1 (single isomer, unassigned) [Compound 193]",< 100
12,Cn1cnnc1CC1(c2cccc(-n3cc4c(C(F)(F)F)cc(C#N)cn4c3=O)c2)COC1 [Compound 18],100 to 300
13,"CC(C)C[C@@H](c1cccc(-n2cc3c(C(F)(F)F)cc(CN4CCC[C@H](C)C4)cn3c2=O)c1)c1nncn1C (single isomer, unassigned) [Compound 152]",> 10000
14,Cn1cnnc1CC1(c2cccc(-n3cc4c(C(F)(F)F)cc(C5CCNC5)cn4c3=O)c2)COC1 (stereo not shown) [Compound 80],301 to 1000
15,C[C@H]1CCCN(Cc2cc(C(F)(F)F)c3cn(-c4cccc(C5(c6nncs6)CC6(CC6)C5)c4)c(=O)n3c2)C1 [Compound 311],> 10000
16,"CC(c1cc(C(F)(F)F)c2cn(-c3cccc(C4(Cc5nncn5C)COC4)c3)c(=O)n2c1)N1CCO[C@H](C)C1 (single isomer, unassigned) [Compound 157]",< 100

row,Structure (SMILES),IC50 [nM]
1,C[C@H]1CCCN(Cc2cc(C(F)(F)F)c3cn(-c4cccc([C@H](c5ncn[nH]5)C5CCC5)c4)c(=O)n3c2)C1 [Compound 270],> 10000
2,Cn1cnnc1C1(c2cccc(-n3cc4c(C(F)(F)F)cc(CN5CCC(C)(F)CC5)cn4c3=O)c2)CC2(CC2)C1 [Compound 111],< 100
3,C[C@@H]1CCCN1Cc1cc(C(F)(F)F)c2cn(-c3cccc([C@H](c4nncn4C)C4CCC4)c3)c(=O)n2c1 [Compound 381_P2],< 100
4,Cn1cnnc1CSc1cccc(-n2cc3c(C(F)(F)F)cccn3c2=O)c1 [Compound 149],> 10000
5,C[C@H]1CCCN(Cc2cc(C(F)(F)F)c3cn(-c4cccc([C@H](CC5CCC5)c5nncn5C)c4)c(=O)n3c2)C1 [Compound 352_P1],> 10000
6,"Cn1cnnc1CC1(c2cccc(-n3cc4c(C(F)(F)F)cc(CN5CCCC(O)CC5)cn4c3=O)c2)COC1 (single isomer, unassigned) [Compound 177]",< 100
7,Cn1cnnc1CC1(c2cccc(-n3cc4c(C(F)(F)F)cc(F)cn4c3=O)c2)COC1 [Compound 104],100 to 300
8,CO[C@H]1CCN(Cc2cc(C(F)(F)F)c3cn(-c4cccc([C@H](c5nncn5C)C5CCC5)c4)c(=O)n3c2)C1 [Compound 259],< 100
9,"CC(c1cc(C(F)(F)F)c2cn(-c3cccc([C@@H](c4nncn4C)C4CCC4)c3)c(=O)n2c1)N1CCC[C@H](C)C1 (single isomer, unassigned) [Compound 191]",301 to 1000
10,"Cn1cnnc1[C@H](c1cccc(-n2cc3c(C(F)(F)F)cc(CN4CC[C@H](C#N)C4)cn3c2=O)c1)C1CCC1 (single isomer, unassigned) [Compound 173]",3000 to 10000
11,C[C@@H]1CN(Cc2cc(C(F)(F)F)c3cn(-c4cccc(N(c5nncn5C)C5CCC5)c4)c(=O)n3c2)CCO1 [Compound 314],> 10000
12,CO[C@@H]1CCN(Cc2cc(C(F)(F)F)c3cn(-c4cccc([C@H](c5nncn5C)C5CCC5)c4)c(=O)n3c2)C1 [Compound 249],< 100
13,"CN1CC=C(c2cc(C(F)(F)F)c3cn(-c4cccc(C5(Cc6nncn6C)COC5)c4)c(=O)n3c2)CC1 [Compound 58, 2-(3-[3-[(4-methyl-1,2,4-triazol-3-yl)methyl]oxetan-3-yl]phenyl)-6-(1-methyl-3,6-dihydro-2H-pyridin-4-yl)-8-(trifluoromethyl)imidazo[1,5-a]pyridin-3-one]",1000 to 3000
14,C[C@@H]1CCCN1Cc1cc(C(F)(F)F)c2cn(-c3cccc([C@@H](c4nncn4C)C4CCC4)c3)c(=O)n2c1 [Compound 381_P1],1000 to 3000
15,"Cc1cn(CCO)nc1[C@H](c1cccc(-n2cc3c(C(F)(F)F)cc(CN4CCC[C@H](C)C4)cn3c2=O)c1)C1CCC1 (single isomer, unassigned) [Compound 361]",> 10000

# Same assay, conditions: second part of Table 2 (head 'Patent Cmpd No / Updated Activity'); same CBL-B TR-FRET IC50 bins A-F; read-out: Updated Activity
row,Structure (SMILES),IC50 [nM]
1,C[C@H]1CCCN(Cc2cc(C(F)(F)F)c3cn(-c4cc([C@@H](c5nncn5C)C5CCC5)ccn4)c(=O)n3c2)C1 [Compound 627_P1],< 100
2,"CO[C@H]1C[C@@H]([C@H](c2cccc(-n3cc4c(C(F)(F)F)cc(CN5CCC[C@H](C)C5)cn4c3=O)c2)c2nncn2C)C1 (single isomer, unassigned) [Compound 554]",< 100
3,"C[C@H]1CCCN(Cc2cc(C(F)(F)F)c3cn(-c4cccc([C@@H](c5nncn5C)C5(O)CCC5)c4)c(=O)n3c2)C1 (single isomer, unassigned) [Compound 475]",3000 to 10000
4,"COC[C@H]1C[C@@H]([C@H](c2cccc(-n3cc4c(C(F)(F)F)cc(CN5CCC[C@H](C)C5)cn4c3=O)c2)c2nncn2C)C1 (single isomer, unassigned) [Compound 495]",100 to 300
5,"C[C@@H](c1cc(C(F)(F)F)c2cn(-c3cccc([C@H](c4nncn4C)C4CCC4)c3)c(=O)n2c1)N1CC[C@@H](F)C1 (single isomer, unassigned) [Compound 501]",< 100
6,"CO[C@H]1C[C@](c2cccc(-n3cc4c(C(F)(F)F)cc([C@H](C)N5CCC(F)CC5)cn4c3=O)c2)(c2nncn2C)C1 (single isomer, unassigned) [Compound 607]",< 100
7,"Cn1cnnc1[C@H](c1cc(-c2nnnn2C)cc(-n2cc3c(C(F)(F)F)cccn3c2=O)c1)C1CCC1 (single isomer, unassigned) [Compound 531]",301 to 1000
8,C[C@@H](c1cc(C(F)(F)F)c2cn(-c3cccc([C@H](c4nncn4C)C4CCC4)c3)c(=O)n2c1)N(C)Cc1cncs1 [Compound 610_P2],< 100
9,"Cn1cnnc1[C@@H](c1cc(-c2ccsn2)cc(-n2cc3c(C(F)(F)F)cccn3c2=O)c1)C1CCC1 (single isomer, unassigned) [Compound 461]",> 10000
10,"CO[C@H]1C[C@](c2cccc(-n3cc4c(C(F)(F)F)cc([C@@H](C)N5CC[C@@H](F)C5)cn4c3=O)c2)(c2nncn2C)C1 (single isomer, unassigned) [Compound 617]",100 to 300
11,CN1CCC2(CN(Cc3cc(C(F)(F)F)c4cn(-c5cccc([C@H](c6nncn6C)C6CCC6)c5)c(=O)n4c3)C2)C1=O [Compound 622],< 100
12,"Cn1cnnc1[C@H](c1cc(-c2ccnnc2)cc(-n2cc3c(C(F)(F)F)cccn3c2=O)c1)C1CCC1 (single isomer, unassigned) [Compound 443]",> 10000
13,"CO[C@]1(C)C[C@@](c2cccc(-n3cc4c(C(F)(F)F)cc(CN5CCC[C@H](C)C5)cn4c3=O)c2)(c2nncn2C)C1 (single isomer, unassigned) [Compound 440]",> 10000
14,Cn1cnnc1[C@@H](c1cccc(-n2cc3c(C(F)(F)F)cc(CN4CCCNS4(=O)=O)cn3c2=O)c1)C1CCC1 [Compound 544],< 100
15,Cn1cnnc1C1(c2cccc(-n3cc4c(C(F)(F)F)cc(CN5CCC6(CC6)C5)cn4c3=O)c2)CCC1 [Compound 450],< 100
16,"Cn1cnnc1[C@H](c1cc(C#N)cc(-n2cc3c(C(F)(F)F)cc(CN4CCC(C)(F)CC4)cn3c2=O)c1)C1CCC1 (single isomer, unassigned) [Compound 516]",> 10000
17,Cn1cnnc1[C@@H](c1cccc(-n2cc3c(C(F)(F)F)cc(CN4CCC5CC54)cn3c2=O)c1)C1CCC1 (stereo partly shown) [Compound 528],< 100
18,"C[C@H]1CCCN(Cc2cc(C(F)(F)F)c3cn(-c4cccc([C@H](c5nncn5C)[C@H]5C[C@@H](O)C5)c4)c(=O)n3c2)C1 (single isomer, unassigned) [Compound 437]",< 100
19,"Cn1cnnc1[C@H](c1cc(-c2ccncc2)cc(-n2cc3c(C(F)(F)F)cccn3c2=O)c1)C1CCC1 (single isomer, unassigned) [Compound 445]",> 10000
20,"CC(=O)NCc1cc([C@H](c2nncn2C)C2CCC2)cc(-n2cc3c(C(F)(F)F)cccn3c2=O)c1 (single isomer, unassigned) [Compound 479]",3000 to 10000
21,CN1CCCN(Cc2cc(C(F)(F)F)c3cn(-c4cccc([C@H](c5nncn5C)C5CCC5)c4)c(=O)n3c2)S1(=O)=O [Compound 562],< 100
22,"Cc1cnnn1[C@H](c1cccc(-n2cc3c(C(F)(F)F)cc(CN4CCC[C@H](C)C4)cn3c2=O)c1)C1CCC1 (single isomer, unassigned) [Compound 582]",> 10000
23,"COC(=O)N1CC[C@H](c2cc(C(F)(F)F)c3cn(-c4cccc([C@H](c5nncn5C)C5CCC5)c4)c(=O)n3c2)C1 (single isomer, unassigned) [Compound 408]",< 100
24,CN1CCC2(CCN(Cc3cc(C(F)(F)F)c4cn(-c5cccc([C@H](c6nncn6C)C6CCC6)c5)c(=O)n4c3)CC2)C1=O [Compound 523],< 100
